Laboratory results: US6066628A, “Non-iron metalloporphyrins and methods of use” (Emory University, priority 1998, dated 2000)
Like-named read-outs stand apart in the source and are kept apart here.

Legend:
Y. enterocolitica [1] = test: Disc diffusion sensitivity test; format: cell-based; settings: disc ~50 μg MP
M. bovis = format: cell-based, Mycobacterium bovis; settings: disc ~50 μg MP
S. crevisieae = test: Disc diffusion sensitivity test; format: cell-based, Saccharomyces cerevisiae; settings: S. cerevisiae; disc ~50 μg MP
B. subtilis = test: Disc diffusion sensitivity test; format: cell-based, Bacillus subtilis; settings: B. subtilis; disc ~50 μg MP
Ps. aeruginosa = test: Disc diffusion sensitivity test; format: cell-based, Pseudomonas aeruginosa; settings: disc ~50 μg MP; also: key: -: resistant; N: not determined
Y. enterocolitica [2] = test: microbe, parasite or virus in culture; format: cell-based
S. pyogenes A = test: Disc diffusion sensitivity test; format: cell-based, Streptococcus pyogenes; settings: disc ~50 μg MP
M. smegmatis [3] = test: Disc diffusion sensitivity test; format: cell-based, Mycobacterium smegmatis; settings: disc ~50 μg MP
E. faecalis = test: Disc diffusion sensitivity test; format: cell-based, Enterococcus faecalis; settings: disc ~50 μg MP; also: key: -: resistant; N: not determined
S. aureus [4] = format: cell-based, Staphylococcus aureus; settings: methicillin-resistant S. aureus IR219; Nutrient broth (Table 2)
N. meningitidis = test: Disc diffusion sensitivity test; format: cell-based; settings: disc ~50 μg MP
S. aureus [5] = test: Disc diffusion sensitivity test; format: cell-based, Staphylococcus aureus; settings: S. aureus; disc ~50 μg MP
S. marcescens = test: Disc diffusion sensitivity test; format: cell-based, Serratia marcescens; settings: S. marcescens; disc ~50 μg MP
M. smegmatis [6] = format: cell-based, Mycobacterium smegmatis; settings: for Minimal inhibitory concentration (MIC): M. smegmatis LR222, LB + Tween 80 (Table 2)
bacteria = format: cell-based
yeasts = test: Yeast growth inhibition; format: cell-based
E. aerogenes = test: Disc diffusion sensitivity test; format: cell-based, Enterobacter aerogenes; settings: E. aerogenes; disc ~50 μg MP
M tuber. H37Pa = test: Disc diffusion sensitivity test; format: cell-based, Mycobacterium tuberculosis; settings: disc ~50 μg MP
C. freundii = test: Disc diffusion sensitivity test; format: cell-based, Citrobacter freundii; settings: C. freundii; disc ~50 μg MP
K. oxytoca = test: Disc diffusion sensitivity test; format: cell-based, Klebsiella oxytoca; settings: K. oxytoca; disc ~50 μg MP
M tuber. H37Rv = test: Disc diffusion sensitivity test; format: cell-based, Mycobacterium tuberculosis; settings: disc ~50 μg MP
F. menigosepticum = test: Disc diffusion sensitivity test; format: cell-based, Flavobacterium meningosepticum; settings: F. meningosepticum; disc ~50 μg MP
K. pneumoniae = test: Disc diffusion sensitivity test; format: cell-based, Klebsiella pneumoniae; settings: K. pneumoniae; disc ~50 μg MP
E. coli = test: Disc diffusion sensitivity test; format: cell-based, Escherichia coli; settings: E. coli; disc ~50 μg MP
P. mirabills = test: Disc diffusion sensitivity test; format: cell-based, Proteus mirabilis; settings: P. mirabilis; disc ~50 μg MP
M. smegmatis [7] = test: Minimal bactericidal concentration; format: cell-based, Mycobacterium smegmatis; settings: reduces plating efficiency more than 99.9%; minimal exposure to light
M. avium = settings: M. avium
[8] = tested on: Streptococcus pyogenes JRS4; format: cell-based; settings: S. pyogenes JRS4 (Table 4)
S. aureus [9] = test: Minimal bactericidal concentration; format: cell-based, Staphylococcus aureus; settings: reduces plating efficiency more than 99.9%; minimal exposure to light
Procedure: Minimal bactericidal concentrations (MBCs) were determined essentially the same way as MICs except that the amount of killing with a particular concentration of porphyrin derivative was determined by plating on solid microbiological media (LB plates or LB+Tween 80). Media were solidified by the incorporation of 1.5% agar (Difco Laboratories). Concentrations of porphyrins that produced 99.9% reduction in bacterial counts were considered bactericidal [Hindler et al. (1994) supra].
MBC were determined by plating bacterial cultures that have been incubate
in the presence of MPs at concentrations higher than MIC. MBC was defined
as a concentration of a particular MP which reduces the plating efficienc
more than 99.9%. Experiments were done with minimal exposure to light
(addition of porphyrins waa done in the presence of artifical light).

M. tuberculosis = format: cell-based, Mycobacterium tuberculosis; settings: pathogenic M. tuberculosis
Y. enterocolitica [10] = test: Minimal bactericidal concentration; format: cell-based; settings: reduces plating efficiency more than 99.9%; minimal exposure to light

Compound | diameter (mm) of the inhibition zone (Y. enterocolitica [1]) | diameter (mm) of the inhibition zone (M. bovis) | diameter (mm) of the inhibition zone (S. crevisieae) | diameter (mm) of the inhibition zone (B. subtilis) | diameter (mm) of the inhibition zone (Ps. aeruginosa) | Minimal inhibitory concentration (MIC) (Y. enterocolitica [2]) | diameter (mm) of the inhibition zone (S. pyogenes A) | diameter (mm) of the inhibition zone (M. smegmatis [3]) | diameter (mm) of the inhibition zone (E. faecalis) | Minimal inhibitory concentration (MIC) (S. aureus [4]) | diameter (mm) of the inhibition zone (N. meningitidis) | diameter (mm) of the inhibition zone (S. aureus [5]) | diameter (mm) of the inhibition zone (S. marcescens) | Minimal inhibitory concentration (MIC) (M. smegmatis [6]) | other results
C=Cc1c(C)c2cc3[nH]c(cc4nc(cc5nc(cc1[nH]2)C(C)=C5CCC(=O)[O-])C(CCC(=O)[O-])=C4C)c(C)c3C=C.[Co+2] [Co-PPIX] | - | - | 18 mm | - | - | 20 | - | - | - | 40 µg/mL | - | 15 mm | - | 20 µg/mL | 
C=CC1=C(C)c2cc3[n-]c(cc4nc(cc5[n-]c(cc1n2)c(C)c5CCC(=O)O)C(CCC(=O)O)=C4C)c(C)c3C=C.[Cr+2] [Cr-PPIX] | - | - | - | - | - | 20 | - | - | - | > 40 µg/mL | - | 10 mm | - | 20 µg/mL | 
CC1=C(CCC(=O)O)C2=Cc3c(C)c(CCC(=O)O)c4[n]3[Ga]([Cl])[n]3c(c(C)c(CCC(=O)O)c3=CC1=N2)=CC1=NC(=C4)C(C)=C1CCC(=O)O [Ga-COPI, Ga-coproporphyrin I] |  |  |  |  |  |  |  |  |  |  |  |  |  |  | antibacterial activity (bacteria): seriously limited in their antibacterial activities; inhibition of growth of yeast (yeasts): able to inhibit growth of yeast
O=C(O)CCC1=C(CC(=O)O)C2=Cc3c(CC(=O)O)c(CCC(=O)O)c4[n]3[Ga]([Cl])[n]3c(c(CCC(=O)O)c(CC(=O)O)c3=CC3=NC(=C4)C(CC(=O)O)=C3CCC(=O)O)=CC1=N2 [Ga-UPIII, Ga-uroporphyrin III] |  |  |  |  |  |  |  |  |  |  |  |  |  |  | antibacterial activity (bacteria): seriously limited in their antibacterial activities; inhibition of growth of yeast (yeasts): able to inhibit growth of yeast
O=S(=O)([O-])c1ccc(-c2c3nc(c(-c4ccc(S(=O)(=O)[O-])cc4)c4ccc([n-]4)c(-c4ccc(S(=O)(=O)[O-])cc4)c4nc(c(-c5ccc(S(=O)(=O)[O-])cc5)c5ccc2[n-]5)C=C4)C=C3)cc1.[Cl-].[Mn+3] [Mn-meso, Mnmeso-tetra(4-sulfonatophenyl)-porphine chloride] | - |  |  | - | - |  |  |  |  |  | - | - | - |  | diameter (mm) of the inhibition zone (E. aerogenes): -; antibacterial activity (bacteria; listed as Manganese (+2)-meso-tetra-4-sulfonatophenyl porphine): inactive; diameter (mm) of the inhibition zone (M tuber. H37Pa): -; diameter (mm) of the inhibition zone (C. freundii): -; diameter (mm) of the inhibition zone (K. oxytoca): -; diameter (mm) of the inhibition zone (M tuber. H37Rv): -; diameter (mm) of the inhibition zone (F. menigosepticum): -; diameter (mm) of the inhibition zone (K. pneumoniae): -; diameter (mm) of the inhibition zone (E. coli): -; diameter (mm) of the inhibition zone (P. mirabills): -
C=Cc1c2[n-]c(c1C)/C=c1\[n-]/c(c(C)c1C=C)=C\c1[n-]c(c(CCC(=O)O)c1C)C=c1[n-]/c(c(C)c1CCC(=O)O)=C\2.[Sn+4] [Sn-PPIX, tin-protoporphyrin IX] | - | - | - | - | - | 20 | - | - | - | > 40 µg/mL | - | - | - | 20 µg/mL | 
Indium (III) protoporphyrin IX chloride [In-PPIX] | 12 mm |  |  |  | - | 0.2 | 13 mm |  | - | 1.6 µg/mL |  | 15 mm |  | 0.4 µg/mL | diameter (mm) of the inhibition zone (E. aerogenes): 9 mm; Minimal bactericidal concentration (MBC) (M. smegmatis [7]): 10; diameter (mm) of the inhibition zone (M tuber. H37Pa): 17 mm; diameter (mm) of the inhibition zone (C. freundii): 9 mm; diameter (mm) of the inhibition zone (K. oxytoca): 9 mm; diameter (mm) of the inhibition zone (M tuber. H37Rv): -; sensitivity (preliminary experiments) (M. avium): sensitive; diameter (mm) of the inhibition zone (F. menigosepticum): -; MIC [8]: 0.1 µg/mL; Minimal bactericidal concentration (MBC) (S. aureus [9]): > 13; sensitivity (preliminary experiments) (M. tuberculosis): sensitive; diameter (mm) of the inhibition zone (K. pneumoniae): 9 mm; antibacterial activity (Y. enterocolitica [2]): inhibitory; Minimal bactericidal concentration (MBC) (Y. enterocolitica [10]): > 13; diameter (mm) of the inhibition zone (E. coli): -; diameter (mm) of the inhibition zone (P. mirabills): 9 mm; antibacterial activity (M. smegmatis [6]; M. smegmatis): inhibitory
